Measured values taken from patent US4734410A, “Lactam derivatives and their use as hypotensive agents” (Sankyo Company Limited, priority 1985, dated 1988).

System: angiotensin I-induced hypertension
Experiment: inhibitory effect on angiotensin I-induced hypertension in vivo after oral administration to rats
Conditions: not given
Method: In addition, the compounds of Examples 2, 3, 7, 10 and 12 were tested in vivo. Each of these test compounds was administered orally to rats and its inhibitory effect on angiotensin I-induced hypertension was determined.

Row | Compound | inhibitory effect on angiotensin I-induced hypertension
1 | CCOC(=O)[C@H](CCc1ccccc1)N[C@H]1CC[C@@H](c2ccccc2)CN(CC(=O)O)C1=O.Cl (single isomer, unassigned) [Example 3] | strong and lasting inhibitory effects
2 | CCOC(=O)[C@H](CCc1ccccc1)N[C@H]1CC[C@H](c2ccc(F)cc2)CN(CC(=O)O)C1=O.Cl [Example 7, α-{3(S)-[1(S)-Ethoxycarbonyl-3-phenylpropylamino]-6(R)-(p-fluorophenyl)-2-oxoperhydroazepin-1-yl}acetic acid hydrochloride] | strong and lasting inhibitory effects
3 | CCOC(=O)[C@H](CCc1ccccc1)N[C@H]1CC[C@H](c2ccccc2)CN(CC(=O)O)C1=O.Cl (single isomer, unassigned) [Example 2] | strong and lasting inhibitory effects
4 | CCCCOC(=O)[C@H](CCc1ccccc1)N[C@H]1CC[C@H](c2ccc(F)cc2)CN(CC(=O)O)C1=O.Cl [Example 10, α-{3(S)-[1(S)-Butoxycarbonyl-3-phenylpropylamino]-6(R)-(p-fluorophenyl)-2-oxoperhydroazepin-1-yl}acetic acid hydrochloride] | strong and lasting inhibitory effects
5 | CCCCOC(=O)[C@H](CCc1ccccc1)N[C@H]1CC[C@H](c2ccccc2)CN(CC(=O)O)C1=O.Cl [Example 12, α-{3(S)-[1(S)-Butoxycarbonyl-3-phenylpropylamino]-2-oxo-6(R)-phenylperhydroazepin-1-yl}acetic acid hydrochloride] | strong and lasting inhibitory effects

Biological target: T1, ACE (Oryctolagus cuniculus, UniProt P12822)
T1 construct: ACE extracted from rabbit lungs; from tissue; host or cells: rabbit lung
T1 sequence (P12822 34-1310): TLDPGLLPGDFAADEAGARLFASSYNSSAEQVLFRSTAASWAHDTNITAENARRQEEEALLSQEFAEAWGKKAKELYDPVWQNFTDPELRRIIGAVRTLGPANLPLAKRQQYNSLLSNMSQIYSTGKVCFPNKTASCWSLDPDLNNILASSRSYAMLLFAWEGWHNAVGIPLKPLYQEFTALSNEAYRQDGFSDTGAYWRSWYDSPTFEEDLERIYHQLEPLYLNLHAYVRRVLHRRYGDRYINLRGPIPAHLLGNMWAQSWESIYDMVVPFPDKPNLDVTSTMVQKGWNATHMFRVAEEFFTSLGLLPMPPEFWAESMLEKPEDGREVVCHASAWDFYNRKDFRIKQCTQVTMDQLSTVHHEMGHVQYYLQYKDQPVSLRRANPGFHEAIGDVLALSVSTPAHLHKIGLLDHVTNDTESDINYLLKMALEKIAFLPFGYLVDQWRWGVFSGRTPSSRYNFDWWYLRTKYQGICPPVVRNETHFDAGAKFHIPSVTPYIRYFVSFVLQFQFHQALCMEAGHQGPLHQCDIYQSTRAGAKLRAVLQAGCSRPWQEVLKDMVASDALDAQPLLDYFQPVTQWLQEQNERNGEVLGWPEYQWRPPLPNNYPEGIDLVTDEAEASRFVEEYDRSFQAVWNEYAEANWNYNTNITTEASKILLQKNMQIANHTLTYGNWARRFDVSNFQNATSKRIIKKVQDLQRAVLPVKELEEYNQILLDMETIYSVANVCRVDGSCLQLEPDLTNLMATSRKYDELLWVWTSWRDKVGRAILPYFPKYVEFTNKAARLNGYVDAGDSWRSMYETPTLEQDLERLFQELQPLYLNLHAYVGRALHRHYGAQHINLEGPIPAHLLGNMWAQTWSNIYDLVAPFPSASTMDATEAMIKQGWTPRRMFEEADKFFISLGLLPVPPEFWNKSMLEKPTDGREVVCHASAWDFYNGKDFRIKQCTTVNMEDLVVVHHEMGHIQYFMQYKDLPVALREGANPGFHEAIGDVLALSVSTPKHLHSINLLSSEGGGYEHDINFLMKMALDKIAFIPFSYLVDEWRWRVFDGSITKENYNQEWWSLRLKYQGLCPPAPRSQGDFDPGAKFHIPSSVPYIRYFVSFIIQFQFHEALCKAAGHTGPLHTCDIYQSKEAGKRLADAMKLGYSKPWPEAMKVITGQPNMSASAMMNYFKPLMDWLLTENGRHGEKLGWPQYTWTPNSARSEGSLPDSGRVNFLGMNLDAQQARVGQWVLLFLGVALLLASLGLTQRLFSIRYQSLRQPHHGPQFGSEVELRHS
Experiment: in vitro inhibition of ACE (procedure of D. W. Cushman et al., hippurylhistidylleucine substrate)
Format: biochemical
Conditions: ACE extracted from rabbit lungs, pH 8.3, 37° C., 30 minutes, hippuric acid at 228 nm
Description: As noted above, the compounds of the present invention have the ability to inhibit the activity of ACE, the enzyme which converts angiotensin I to angiotensin II and also inactivates bradykinin. The physiological activity of the compounds of the invention can be evaluated by determining the concentration of the test compound required to inhibit the activity of ACE by 50% in vitro (IC50), for example by the procedure of D. W. Cushman et al. [Biochemical Pharmacology, 20, 1637 (1971)]. Specifically, solutions of ACE extracted from rabbit lungs and, as substrate, hippurylhistidylleucine, to which had been added the test compound at various concentrations, were added to a borate buffer solution containing sodium chloride, and the pH was adjusted to a value of 8.3. The enzymatic reaction was allowed to proceed at 37° C. for 30 minutes, after which time the reaction was terminated by adding 1N aqueous hydrochloric acid. The hippuric acid formed by this reaction was extracted with ethyl acetate and the solvent was then distilled from the extract. The residual hippuric acid was dissolved in water. The amount of hippuric acid in the resulting aqueous solution was determined by the absorbency to ultraviolet radiation at 228 nm. The resulting values were then plotted to form a curve indicating the relationship between the amount of hippuric acid formed and the concentration of the test compound. The IC50 value can be obtained by reading on this curve the concentration of the test compound which reduces the amount of hippuric acid formed to one half of that formed when no test compound is present.

Row | Compound | IC50 [nM]
6 | O=C(O)CN1C[C@@H](c2ccccc2)CC[C@H](N[C@@H](CCc2ccccc2)C(=O)O)C1=O (single isomer, unassigned) [Test Compound A] | 1.4
7 | O=C(O)CN1C[C@H](c2ccccc2)CC[C@H](N[C@@H](CCc2ccccc2)C(=O)O)C1=O (single isomer, unassigned) [Test Compound B] | 2
8 | O=C(O)CN1C[C@@H](c2ccc(F)cc2)CC[C@H](N[C@@H](CCc2ccccc2)C(=O)O)C1=O [Test Compound C, α-{3(S)-[1(S)-carboxy-3-phenylpropylamino]-6(R)-(p-fluorophenyl)-2-oxoperhydroazepin-1-yl}acetic acid] | 1.7
